Counter-ions that a name gives are not always drawn.
Columns and labels:
[1] = tested on: DP50 cotton zygotic embryo explants; test: Relative activity of different formulations of dikegulac on DP50 cotton zygotic embryo explants; assay type: cell-based; conditions: cv DP50
Experimental: Any common plant tissue culture media can be used, including, but not limited to, modified LP medium, DKW medium, GD1 medium, MS/B5 medium, or WPM medium. Embryo axes should be placed apical end up and basal end into the medium so that the radicle is beneath the medium surface. The explants are cultured axenically at approximately 25-28° C. under fluorescent lighting at about 10-50 μE PAR for a 16-hour photoperiod. Typically it takes 5-10 weeks for multiple shoots in cotton to develop to a useful size. Table 4 is a comparison of many different formulations of dikegulac.

[2] = tested on: cotton plants; test: Morphology and fertility of cotton plants grown from elongated, rooted shoots produced with dikegulac; assay type: in vivo
Description: Elongation and rooting After multiple shoots are produced, individual shoots, epicotyls, or entire shoot clump developed on the explant are excised and subcultured on the basal medium used above (without the growth regulators, or with exogenous auxin) under the same temperature and light conditions. Table 4 is a comparison of many different formulations of dikegulac.

[3] = tested on: cotton embryos; test: Multiple shoot formation from cotton embryos cultured on varying levels of dikegulac with 1 mg/L IAA and 1 mg/L BAP; assay type: cell-based
Experimental: Tissue culture: Embryo explants are cultured in media in a suitable culture vessel containing 500 mg/L sodium dikegulac (2,3:4,6-diisopropylidene-2-keto-1-gulonic acid), 1 mg/L IAA (indole-3-acetic acid), and 1 mg/L BA (N-6-benzyladenine) (herein after referred to as DIB media). Any common plant tissue culture media can be used, including, but not limited to, modified LP medium, DKW medium, GD1 medium, MS/B5 medium, or WPM medium. Embryo axes should be placed apical end up and basal end into the medium so that the radicle is beneath the medium surface. The explants are cultured axenically at approximately 25-28° C. under fluorescent lighting at about 10-50 μE PAR for a 16-hour photoperiod. Typically it takes 5-10 weeks for multiple shoots in cotton to develop to a useful size. Experiments were done to determine if the form of the dikegulac is important and to determine a minimum optimum level of dikegulac needed for multiple shoot formation. […] What is not captured in the numerical data in Table 3 is the overall phenotypic response of the cultures. The explants cultured on the MS/B5 medium contained a lot of callus tissue at the base and the cultures were yellowing. The cultures on GD1 contained only a minimal amount of callus but the yellowing of the regenerating tissues was present.

[4] = tested on: cotton explants; test: Early experiments with dikegulac sodium salt in the culture medium for cotton; assay type: cell-based; conditions: 1000 mg/L incorporated into the culture medium
Experimental: Forms of dikegulac: Dikegulac comes in several forms, for example a sodium salt, Atrimmec™, and free add. Early experiments were done using 1000 mg/L of the sodium salt incorporated into the culture medium for cotton. […] Later tests reduced this to 500 mg/L for ease of shoot development. Sodium dikegulac (500 mg/L) was tested in all combinations with BAP (0, 1, and 5 mg/L) and IAA (0, 1, and 5 mg/L). For US upland cotton varieties, 500 mg/L dikegulac, 1 mg/L IAA and 1 mg/L BA is a particularly useful combination. Zeatin riboside (ZR) can be substituted for BA with good results. The cytokinin component can also be omitted with good results.

[5] = Study 1, 500 mg/L, liquid DIB medium
[6] = Study 1, 500 mg/L, solid DIB medium
[7] = Study 2, 500 mg/L, solid DIB medium
[8] = MS/B5 medium, dikegulac 200 mg/L
[9] = MS/B5 medium, dikegulac 300 mg/L
[10] = MS/B5 medium, dikegulac 500 mg/L

Row | Structure (SMILES) | Extra buds per viable explant [1, 5] | No. non-viable Explants [1, 5] | Percent Responding [1, 5] | Extra buds per viable explant [1, 6] | No. non-viable Explants [1, 6] | Percent Responding [1, 6] | Extra buds per viable explant [1, 7] | No. non-viable Explants [1, 7] | Percent Responding [1, 7] | Fertility of plants developed from elongated, rooted shoots [2] | Morphology of plants developed from elongated, rooted shoots [2] | # Responding, multiple shoots ([3]; GD1 medium, dikegulac 500 mg/L) | # Responding, multiple shoots [3, 10] | further results
1 | CC1(C)OC[C@@H]2O[C@@]3(C(=O)O)OC(C)(C)O[C@H]3[C@@H]2O1 [dikegulac (acid form), 2,3:4,6-di-o-isopropylidene-2-keto-L-gulonic add] | 3.4 | 16 | 67% | 3.8 | 8 | 87% | 4.2 | 1 | 96% | 100% | morphologically normal | 40/50 | 38/50 | # Responding, single shoots ([3]; GD1 medium, dikegulac 100 mg/L): 39/50; # Responding, multiple shoots ([3]; GD1 medium, dikegulac 200 mg/L): 21/50; # Responding, single shoots ([3]; GD1 medium, dikegulac 200 mg/L): 22/50; # Responding, multiple shoots ([3]; GD1 medium, dikegulac 300 mg/L): 33/50; # Responding, single shoots ([3]; GD1 medium, dikegulac 300 mg/L): 10/50; # Responding, multiple shoots ([3]; GD1 medium, dikegulac 400 mg/L): 37/50; # Responding, single shoots ([3]; MS/B5 medium, dikegulac 100 mg/L): 36/50; # Responding, multiple shoots [3, 8]: 38/50; # Responding, single shoots [3, 8]: 9/50; # Responding, multiple shoots [3, 9]: 41/50; # Responding, single shoots [3, 9]: 3/50; # Responding, multiple shoots ([3]; MS/B5 medium, dikegulac 400 mg/L): 40/50
2 | CC1(C)OC[C@@H]2O[C@@]3(C(=O)O)OC(C)(C)O[C@H]3[C@@H]2O1 [dikegulac (sodium salt), 2,3:4,6-diisopropylidene-2-keto-1-gulonic acid] |  |  |  |  |  |  |  |  |  | 100% | morphologically normal | 35/50 | 39/50 | Response of cotton explants [4]: swelling, enlarged meristems, and adventitious-like leaf primordia, but the explants did not easily grow out
3 | CC1(C)OC[C@@H]2O[C@@]3(C(=O)[O-])OC(C)(C)O[C@H]3[C@@H]2O1.[Na+] [Q2161] | 3.5 | 20 | 64% | 2.9 | 9 | 85% |  |  |  |  |  |  |  | 
4 | CC1(C)OC[C@@H]2O[C@@]3(C(=O)[O-])OC(C)(C)O[C@H]3[C@@H]2O1.[Na+] [RJK-H] |  |  |  | 3.7 | 9 | 85% |  |  |  |  |  |  |  | Extra buds per viable explant ([1]; Study 3, 400): 1.9; No. non-viable Explants ([1]; Study 3, 400): 20; Percent Responding ([1]; Study 3, 400): 75%; Extra buds per viable explant ([1]; Study 3, 500): 3.0; No. non-viable Explants ([1]; Study 3, 500): 17; Percent Responding ([1]; Study 3, 500): 79%; Extra buds per viable explant ([1]; Study 3, 600): 3.4; No. non-viable Explants ([1]; Study 3, 600): 24; Percent Responding ([1]; Study 3, 600): 70%; Extra buds per viable explant ([1]; Study 3, 700): 3.1; No. non-viable Explants ([1]; Study 3, 700): 33; Percent Responding ([1]; Study 3, 700): 59%
5 | CC1(C)OC[C@@H]2O[C@@]3(C(=O)[O-])OC(C)(C)O[C@H]3[C@@H]2O1.[Na+] [D4043] | 3.9 | 16 | 84% | 3.4 | 5 | 92% | 4.1 | 8 | 83% |  |  |  |  | 
6 | CC1(C)OC[C@@H]2O[C@@]3(C(=O)[O-])OC(C)(C)O[C@H]3[C@@H]2O1.[Na+] [RJK-D] | 3.3 | 11 | 82% |  |  |  |  |  |  |  |  |  |  | 

Source: US8187882B2, “Multiple shoot proliferation and regeneration system for plants” (Monsanto Technology LLC, priority 2001, dated 2012)
